Test results taken from patent US20260285850A1, “SUBSTITUTED OXAZOLIDINONES AND IMIDAZOLINONES AS HERBICIDES” (FMC CORPORATION, priority 2023, published 2026).

How the values were obtained:
Type in all cases: in vivo
[1] = tested on: barnyardgrass (Echinochloa crus-galli); test: Test A preemergence soil spray, visual injury rating 0-100; settings: 10 days, 0 = no effect, 100 = complete control
In short: (§1)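 Compound in a non-phytotoxic, surfactant-containing solvent is applied either as a directed soil spray before seedlings emerge or onto emerged plants 2-10 cm tall; pots hold a loam-sand blend. Plants grow 10 days under greenhouse conditions and are rated by eye against untreated controls (0 no effect, 100 complete control).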

[2] = tested on: blackgrass (Alopecurus myosuroides); test: as above; settings: 10 days, 0 = no effect, 100 = complete control
In short: as §1

[3] = tested on: green foxtail (Setaria viridis); test: as above; settings: 10 days, 0 = no effect, 100 = complete control
In short: as §1

kochia (Bassia scoparia) [4] = test: as above; settings: 10 days, 0 = no effect, 100 = complete control
In short: as §1

[5] = tested on: palmer (palmer amaranth, palmer pigweed, Amaranthus palmeri); test: as above; settings: 1000 g ai/ha, 10 days, 0 = no effect, 100 = complete control
In short: as §1

[6] = tested on: ragweed (common ragweed, Ambrosia artemisiifolia); test: as above; settings: 10 days, 0 = no effect, 100 = complete control
In short: as §1

[7] = tested on: ryegrass, Italian (italian ryegrass, Lolium multiflorum); test: as above; settings: 10 days, 0 = no effect, 100 = complete control
In short: as §1

[8] = tested on: barnyardgrass (Echinochloa crus-galli); test: Test A postemergence application, visual injury rating 0-100; settings: Postemergence, 10 days; for Barnyardgrass plant response rating: 1000 g ai/ha, 0 to 100 scale; for Barnyardgrass plant response rating (0 to 100 scale): 0 is no effect, 100 is complete control
In short: as §1

[9] = tested on: blackgrass (Alopecurus myosuroides); test: as above; settings: Postemergence, 10 days; for Blackgrass plant response rating: 1000 g ai/ha, 0 to 100 scale; for Blackgrass plant response rating (0 to 100 scale): 0 is no effect, 100 is complete control
In short: as §1

[10] = tested on: galium (catchweed bedstraw, Galium aparine); test: as above; settings: Postemergence, 10 days; for Galium plant response rating: 1000 g ai/ha, 0 to 100 scale; for Galium plant response rating (0 to 100 scale): 0 is no effect, 100 is complete control
In short: as §1

[11] = tested on: green foxtail (Setaria viridis); test: as above; settings: Postemergence, 10 days; for Foxtail, Green plant response rating: 1000 g ai/ha, 0 to 100 scale; for Foxtail, Green plant response rating (0 to 100 scale): 0 is no effect, 100 is complete control
In short: as §1

[12] = tested on: horseweed (Erigeron canadensis); test: as above; settings: Postemergence, 10 days; for Horseweed plant response rating: 1000 g ai/ha, 0 to 100 scale; for Horseweed plant response rating (0 to 100 scale): 0 is no effect, 100 is complete control
In short: as §1

kochia (Bassia scoparia) [13] = test: as above; settings: Postemergence, 10 days; for Kochia plant response rating: 1000 g ai/ha, 0 to 100 scale; for Kochia plant response rating (0 to 100 scale): 0 is no effect, 100 is complete control
In short: as §1

[14] = tested on: barnyardgrass (Echinochloa crusgalli); test: Test B flooded paddy test, visual plant response rating 0-100; settings: 250 g ai/ha, Flood, applied to paddy water, evaluated after 13 days
In short: (§2)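 Greenhouse, 13 d. Seedlings at 2-leaf stage, pots flooded to 3 cm, compound delivered into floodwater, water level held constant. Evaluated visually relative to controls.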

[15] = tested on: ducksalad (Heteranthera limosa); test: as above; settings: 250 g ai/ha, Flood, applied to paddy water, evaluated after 13 days
In short: as §2

rice (Oryza sativa) = test: as above; settings: 250 g ai/ha, Flood, applied to paddy water, evaluated after 13 days
In short: as §2

[16] = tested on: sedge, umbrella (small-flower umbrella sedge, Cyperus difformis); test: as above; settings: 250 g ai/ha, Flood, applied to paddy water, evaluated after 13 days
In short: as §2

corn (Zea mays) [17] = test: Test A preemergence soil spray, visual injury rating 0-100; settings: 10 days, 0 = no effect, 100 = complete control
In short: as §1

[18] = tested on: oat, wild (wild oat, Avena fatua); test: as above; settings: 10 days, 0 = no effect, 100 = complete control
In short: as §1

soybean (Glycine max) [19] = test: as above; settings: 10 days, 0 = no effect, 100 = complete control
In short: as §1

[20] = tested on: wheat (Triticum aestivum); test: as above; settings: 500 g ai/ha, 10 days, 0 = no effect, 100 = complete control
In short: as §1

corn (Zea mays) [21] = test: Test A postemergence application, visual injury rating 0-100; settings: Postemergence, 10 days, 0 is no effect, 100 is complete control
In short: as §1

[22] = tested on: oat, wild (wild oat, Avena fatua); test: as above; settings: Postemergence, 10 days, 0 is no effect, 100 is complete control
In short: as §1

[23] = tested on: palmer (palmer amaranth, palmer pigweed, Amaranthus palmeri); test: as above; settings: Postemergence, 10 days, 0 is no effect, 100 is complete control
In short: as §1

[24] = tested on: ragweed (common ragweed, Ambrosia artemisiifolia); test: as above; settings: Postemergence, 10 days, 0 is no effect, 100 is complete control
In short: as §1

[25] = tested on: ryegrass, Italian (italian ryegrass, Lolium multiflorum); test: as above; settings: Postemergence, 10 days, 0 is no effect, 100 is complete control
In short: as §1

soybean (Glycine max) [26] = test: as above; settings: Postemergence, 10 days, 0 is no effect, 100 is complete control
In short: as §1

[27] = tested on: wheat (Triticum aestivum); test: as above; settings: Postemergence, 10 days, 0 is no effect, 100 is complete control
In short: as §1

COC(=O)C1=CCC(NC(=O)C2(C)CN(c3cc(F)cc(F)c3)C(=O)N2)C1 (mixture of isomers) [Compound 181]
Barnyardgrass plant response rating (0 to 100 scale) ([1]; 1000 g ai/ha): 80
Blackgrass plant response rating (0 to 100 scale) ([2]; 1000 g ai/ha): 80
Foxtail, Green plant response rating (0 to 100 scale) ([3]; 1000 g ai/ha): 90
Kochia plant response rating (0 to 100 scale) (kochia (Bassia scoparia) [4]; 1000 g ai/ha): 90
Amaranth, Palmer / Pigweed, Palmer plant response rating (0 to 100 scale) [5]: 90
Ragweed plant response rating (0 to 100 scale) ([6]; 1000 g ai/ha): 0
Ryegrass, Italian plant response rating (0 to 100 scale) ([7]; 1000 g ai/ha): 0
Barnyardgrass plant response rating [8]: 90
Blackgrass plant response rating [9]: 90
Galium plant response rating [10]: 90
Foxtail, Green plant response rating [11]: 90
Horseweed plant response rating [12]: 10
Kochia plant response rating (kochia (Bassia scoparia) [13]): 80
Plant response rating, Barnyardgrass (0 to 100 scale, 0 is no effect and 100 is complete control) [14]: 10
Plant response rating, Ducksalad (0 to 100 scale, 0 is no effect and 100 is complete control) [15]: 30
Plant response rating, Rice (0 to 100 scale, 0 is no effect and 100 is complete control) (rice (Oryza sativa)): 15
Plant response rating, Sedge, Umbrella (0 to 100 scale, 0 is no effect and 100 is complete control) [16]: 0

COC(=O)[C@H]1C[C@@H](NC(=O)C2(C)CN(c3cc(F)cc(F)c3)C(=O)O2)[C@H]2C[C@H]21 (stereo partly drawn) [Compound 176, methyl (1R,2S,4R,5S)-4-[[3-(3,5-difluorophenyl)-5-methyl-2-oxo-oxazolidine-5-carbonyl]amino]bicyclo[3.1.0]hexane-2-carboxylate]
Barnyardgrass plant response rating (0 to 100 scale) ([1]; 125 g ai/ha): 100
Barnyardgrass plant response rating (0 to 100 scale) ([1]; 500 g ai/ha): 100
Blackgrass plant response rating (0 to 100 scale) ([2]; 125 g ai/ha): 90
Blackgrass plant response rating (0 to 100 scale) ([2]; 500 g ai/ha): 100
Corn plant response rating (0 to 100 scale) (corn (Zea mays) [17]; 125 g ai/ha): 70
Corn plant response rating (0 to 100 scale) (corn (Zea mays) [17]; 500 g ai/ha): 100
Foxtail, Green plant response rating (0 to 100 scale) ([3]; 125 g ai/ha): 90
Foxtail, Green plant response rating (0 to 100 scale) ([3]; 500 g ai/ha): 100
Kochia plant response rating (0 to 100 scale) (kochia (Bassia scoparia) [4]; 125 g ai/ha): 90
Kochia plant response rating (0 to 100 scale) (kochia (Bassia scoparia) [4]; 500 g ai/ha): 100
Oat, Wild plant response rating (0 to 100 scale) ([18]; 125 g ai/ha): 90
Oat, Wild plant response rating (0 to 100 scale) ([18]; 500 g ai/ha): 90
Ragweed plant response rating (0 to 100 scale) ([6]; 125 g ai/ha): 0
Ragweed plant response rating (0 to 100 scale) ([6]; 500 g ai/ha): 0
Ryegrass, Italian plant response rating (0 to 100 scale) ([7]; 125 g ai/ha): 100
Ryegrass, Italian plant response rating (0 to 100 scale) ([7]; 500 g ai/ha): 100
Soybean plant response rating (0 to 100 scale) (soybean (Glycine max) [19]; 125 g ai/ha): 70
Soybean plant response rating (0 to 100 scale) (soybean (Glycine max) [19]; 500 g ai/ha): 80
Wheat plant response rating (0 to 100 scale) [20]: 100
Barnyardgrass plant response rating (0 to 100 scale) ([8]; 125 g ai/ha): 100
Barnyardgrass plant response rating (0 to 100 scale) ([8]; 500 g ai/ha): 100
Blackgrass plant response rating (0 to 100 scale) ([9]; 125 g ai/ha): 90
Blackgrass plant response rating (0 to 100 scale) ([9]; 500 g ai/ha): 90
Corn plant response rating (0 to 100 scale) (corn (Zea mays) [21]; 125 g ai/ha): 100
Corn plant response rating (0 to 100 scale) (corn (Zea mays) [21]; 500 g ai/ha): 100
Galium plant response rating (0 to 100 scale) ([10]; 125 g ai/ha): 90
Galium plant response rating (0 to 100 scale) ([10]; 500 g ai/ha): 100
Foxtail, Green plant response rating (0 to 100 scale) ([11]; 125 g ai/ha): 90
Foxtail, Green plant response rating (0 to 100 scale) ([11]; 500 g ai/ha): 90
Horseweed plant response rating (0 to 100 scale) ([12]; 125 g ai/ha): 0
Horseweed plant response rating (0 to 100 scale) ([12]; 500 g ai/ha): 30
Kochia plant response rating (0 to 100 scale) (kochia (Bassia scoparia) [13]; 125 g ai/ha): 90
Kochia plant response rating (0 to 100 scale) (kochia (Bassia scoparia) [13]; 500 g ai/ha): 90
Oat, Wild plant response rating (0 to 100 scale) ([22]; 125 g ai/ha): 90
Oat, Wild plant response rating (0 to 100 scale) ([22]; 500 g ai/ha): 90
Amaranth, Palmer / Pigweed, Palmer plant response rating (0 to 100 scale) ([23]; 125 g ai/ha): 80
Amaranth, Palmer / Pigweed, Palmer plant response rating (0 to 100 scale) ([23]; 500 g ai/ha): 90
Ragweed plant response rating (0 to 100 scale) ([24]; 125 g ai/ha): 70
Ragweed plant response rating (0 to 100 scale) ([24]; 500 g ai/ha): 80
Ryegrass, Italian plant response rating (0 to 100 scale) ([25]; 125 g ai/ha): 100
Ryegrass, Italian plant response rating (0 to 100 scale) ([25]; 500 g ai/ha): 100
Soybean plant response rating (0 to 100 scale) (soybean (Glycine max) [26]; 125 g ai/ha): 70
Soybean plant response rating (0 to 100 scale) (soybean (Glycine max) [26]; 500 g ai/ha): 70
Wheat plant response rating (0 to 100 scale) ([27]; 125 g ai/ha): 90
Wheat plant response rating (0 to 100 scale) ([27]; 500 g ai/ha): 90
Plant response rating, Barnyardgrass (0 to 100 scale, 0 is no effect and 100 is complete control) [14]: 55
Plant response rating, Ducksalad (0 to 100 scale, 0 is no effect and 100 is complete control) [15]: 65
Plant response rating, Rice (0 to 100 scale, 0 is no effect and 100 is complete control) (rice (Oryza sativa)): 35
Plant response rating, Sedge, Umbrella (0 to 100 scale, 0 is no effect and 100 is complete control) [16]: 45

CC1(C(=O)NC2CC=C(C(=O)O)C2)CN(c2cc(F)cc(F)c2)C(=O)N1 (centres unmarked) [Compound 182]
Barnyardgrass plant response rating (0 to 100 scale) ([1]; 1000 g ai/ha): 80
Blackgrass plant response rating (0 to 100 scale) ([2]; 1000 g ai/ha): 90
Foxtail, Green plant response rating (0 to 100 scale) ([3]; 1000 g ai/ha): 100
Kochia plant response rating (0 to 100 scale) (kochia (Bassia scoparia) [4]; 1000 g ai/ha): 90
Amaranth, Palmer / Pigweed, Palmer plant response rating (0 to 100 scale) [5]: 90
Ragweed plant response rating (0 to 100 scale) ([6]; 1000 g ai/ha): 30
Ryegrass, Italian plant response rating (0 to 100 scale) ([7]; 1000 g ai/ha): 90
Barnyardgrass plant response rating [8]: 90
Blackgrass plant response rating [9]: 90
Galium plant response rating [10]: 90
Foxtail, Green plant response rating [11]: 90
Horseweed plant response rating [12]: 80
Kochia plant response rating (kochia (Bassia scoparia) [13]): 80
Plant response rating, Barnyardgrass (0 to 100 scale, 0 is no effect and 100 is complete control) [14]: 20
Plant response rating, Ducksalad (0 to 100 scale, 0 is no effect and 100 is complete control) [15]: 60
Plant response rating, Rice (0 to 100 scale, 0 is no effect and 100 is complete control) (rice (Oryza sativa)): 15
Plant response rating, Sedge, Umbrella (0 to 100 scale, 0 is no effect and 100 is complete control) [16]: 70
